Results reported in US12187672B2, “1,2-diacylglycerol compound, preparation method therefor, and immunomodulator containing same as active ingredient” (ENZYCHEM LIFESCIENCES CORPORATION, priority 2018, dated 2025).

Tests used:
[1] = test system: CXCL8 (IL-8); test: CXCL8 (IL-8) expression reduction in Gemcitabine-treated THP-1 cells (ELISA); assay type: cell-based, human; settings: THP-1 cells; for reduction of CXCL8 (IL-8) expression/secretion: Gemcitabine-treated, 100 μg/ml; for CXCL8 [IL-8] concentration (average ± deviation): sample 100 μg/ml 1 h, then Gemcitabine 2 μg/ml 24 h
In short: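 Human THP-1 macrophage-like cells in RPMI/10% FBS, plated at 1×10^6 cells/ml, pretreated 1 h with compound, then stimulated with Gemcitabine (2 μg/ml) for 24 h at 37° C, 5% CO2. Secreted IL-8 in the supernatant was measured by sandwich ELISA, read at 450 nm.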

[2] = test system: STAT6; test: IL-4-induced STAT6 activity, pGL4-STAT6 luciferase reporter in A549 cells; assay type: cell-based; settings: sample 100 μg/ml 1 h
In short: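 A549 cells transiently transfected with pGL4-STAT6 reporter (24 h), pretreated with compound 1 h, then stimulated with IL-4 (2 ng/ml or 10 ng/ml) for 20 h. Cells lysed and luciferase luminescence read as STAT6 activity.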

[3] = test system: IL-4; test: PKC activator-induced IL-4 secretion reduction in EL-4 cells (ELISA); assay type: cell-based, mouse; settings: for IL-4 concentration (average ± deviation): sample 100 μg/ml 2 h, then PKC activator 18 h; for decrease of IL-4 secretion/expression: PKC activator-treated, 100 μg/ml
In short: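 Mouse EL-4 lymphoma cells in DMEM/10% FBS pretreated 2 h with compound, then stimulated with 0.5 μg/ml PKC activator (PMA type) for 18 h at 37 °C. Secreted IL-4 in supernatant quantified by sandwich ELISA (OD 450 nm) and expressed as reduction rate.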

[4] = test system: HL-60 cells; test: Migration of HL-60 cell line toward THP-1 culture supernatant (transmigration assay); assay type: cell-based, human; settings: supernatant of THP-1 cells treated with sample 100 μg/ml 1 h, then Gemcitabine 2 μg/ml 24 h
In short: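 THP-1 cells pretreated 1 h with compounds, then stimulated with gemcitabine (2 μg/ml) for 24 h; supernatant placed in lower chamber. HL-60 cells (5×10^4/chamber) migrated through laminin I-coated upper chamber; migrated cells quantified by Calcein-AM fluorescence converted to cell number.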

[5] = then IL-4 (2 ng/ml) 20 h, Table 9
[6] = then IL-4 (10 ng/ml) 20 h, Table 10

| SMILES | reduction of CXCL8 (IL-8) expression/secretion [1] | CXCL8 [IL-8] concentration (average ± deviation) [1] [pg/µL] | STAT6 activity_Luciferase activity (average ± deviation) [2, 5] | STAT6 activity_Luciferase activity (average ± deviation) [2, 6] | IL-4 concentration (average ± deviation) ([3]; Table 11) [pg/µL] | IL-4 concentration (average ± deviation) ([3]; Table 12) [pg/µL] | Number of HL-60 cells migrated through Transwell [4] [Cell Number] | decrease of IL-4 secretion/expression [3] |
| --- | --- | --- | --- | --- | --- | --- | --- | --- |
| CCCCC/C=C\C/C=C\CCCCCCCC(=O)OC(COC(C)=O)COC(=O)CCCCCCCCCCCCCCC (stereo not drawn) [EC-18, 1-palmitoyl-2-linoleoyl-3-acetylglycerol, reference compound] | about 20% | 79.6 ± 6.0 | 462.5 ± 161.7 | 18878.0 ± 500.8 | 662.4 ± 42.4 | 429.2 ± 7.0 | 2697.2 |  |
| CCCCC/C=C\C/C=C\CCCCCCCC(=O)OC(COC(=O)CCCCCCCCCCCCCCC)COC(C)C (stereo not drawn) [EC_A21] | about 20% | 86.2 ± 0.7 | 880.0 ± 50.0 |  | 488.8 ± 46.2 |  | 1986.3 |  |
| CCCCC/C=C\C/C=C\CCCCCCCC(=O)OC(COC(=O)CC)COC(=O)CCCCCCCCCCCCCCC (stereo not drawn) [EC_A78] |  | 108.5 ± 4.9 |  | 19208.7 ± 2129.6 |  | 557 ± 11.5 | 23396.6 |  |
| CCCCC/C=C\C/C=C\CCCCCCCC(=O)OC(COC(=O)CCCCCCCCCCCCCCC)COC(=O)C1CC1 (stereo not drawn) [EC_A79] |  | 108.7 ± 8.3 |  | 20037.7 ± 786.0 |  | 527 ± 17.9 | 12527.5 |  |
| CCCCC/C=C\C/C=C\CCCCCCCC(=O)OC(COC(=O)CCCCCC)COC(=O)CCCCCCCCCCCCCCC (stereo not drawn) [EC_A83] |  | 107.7 ± 3.9 |  | 18788.2 ± 2805.4 |  | 637.9 ± 14.1 | 7316.6 |  |
| CCCCC/C=C\C/C=C\CCCCCCCC(=O)OC(COC(=O)CCC)COC(=O)CCCCCCC (stereo not drawn) [EC_A85] |  | 94.4 ± 3.4 |  | 19878.2 ± 4338.5 |  | 485.1 ± 19.2 | 7687.7 | about 20% |
| CCCCC/C=C\C/C=C\CCCCCCCC(=O)OC(COC(=O)CCCC)COC(=O)CCCCCCC (stereo not drawn) [EC_A86] |  | 99.2 ± 4.9 |  | 18158.0 ± 3182.4 |  | 476.0 ± 2.5 | 18542.0 | about 20% |
| CCCCC/C=C\C/C=C\CCCCCCCC(=O)OC(COC(=O)CC)COC(=O)CCCCCCC (stereo not drawn) [EC_A87] |  | 134.4 ± 10.7 |  | 17258.7 ± 3007.1 |  | 511.0 ± 0.6 | 7198.0 | about 20% |
| CCCCC/C=C\C/C=C\CCCCCCCC(=O)OC(COC(=O)CCCCCCC)COC(=O)C(C)C (stereo not drawn) [EC_A88] |  | 91.4 ± 3.4 |  | 17409.5 ± 1849.8 |  | 654.7 ± 0.6 | 17552.5 |  |
| CCCCCC=CCC=CCCCCCCCC(=O)OC(COC(=O)CCCCCCC)COC(=O)C(C)(C)C (stereo not drawn) [EC_A89] |  | 123.1 ± 0.0 |  | 18635.5 ± 846.4 |  | 620.1 ± 22.4 | 6969.9 |  |
| CCCCC/C=C\C/C=C\CCCCCCCC(=O)OC(COC(=O)CC)COC(=O)CCCCCCCCCCC (stereo not drawn) [EC_A91] |  | 96.1 ± 3.6 |  | 22036.0 ± 4089.4 |  | 446.0 ± 16.7 | 9429.8 | about 20% |
| CCCCC/C=C\C/C=C\CCCCCCCC(=O)OC(COC(=O)CCC)COC(=O)CCCCCCCCCCC (stereo not drawn) [EC_A92] |  | 105.1 ± 0.2 |  | 17237.2 ± 317.7 |  | 498.3 ± 45.6 | 2891.6 | about 20% |
| CCCCC/C=C\C/C=C\CCCCCCCC(=O)OC(COC(=O)CCCC)COC(=O)CCCCCCCCCCC (stereo not drawn) [EC_A93] |  | 110.9 ± 0.0 |  | 15562.5 ± 900.7 |  | 507.9 ± 3.85 | 6828.6 | about 20% |
| CCCCC/C=C\C/C=C\CCCCCCCC(=O)OC(COC(=O)CCCCCCCCCCC)COC(=O)C(C)CC (stereo not drawn) [EC_A96] |  | 103.7 ± 5.4 |  | 14593.2 ± 2168.7 |  | 582.9 ± 17.3 | 15110.8 |  |
| CCCCC/C=C\C/C=C\CCCCCCCC(=O)OC(COC(=O)CC)COC(=O)CCCCCCCCC (stereo not drawn) [EC_A97] |  | 96.2 ± 0.2 |  | 16787.0 ± 4102.6 |  | 541.5 ± 20.5 | 7440.6 |  |
| CCCCC/C=C\C/C=C\CCCCCCCC(=O)OC(COC(=O)CCC)COC(=O)CCCCCCCCC (stereo not drawn) [EC_A98] |  | 105 ± 2.0 |  | 14727.2 ± 129.2 |  | 584.2 ± 50.1 | 11056.8 |  |
| CCCCC/C=C\C/C=C\CCCCCCCC(=O)OC(COC(=O)CCCC)COC(=O)CCCCCCCCC (stereo not drawn) [EC_A99] |  | 102.0 ± 19.3 |  | 17407.0 ± 1347.6 |  | 553.3 ± 39.8 | 7164.9 |  |
| CCCCC/C=C\C/C=C\CCCCCCCC(=O)OC(COC(=O)CCCCCCCCC)COC(=O)C(C)C (stereo not drawn) [EC_A100] |  | 115.1 ± 3.9 |  | 14212.0 ± 1008.8 |  | 539.7 ± 6.4 | 8947.2 |  |
| CCCCC/C=C\C/C=C\CCCCCCCC(=O)OC(COC(=O)CCCCCCCCC)COC(=O)C(C)(C)C (stereo not drawn) [EC_A101] |  | 118.1 ± 2.8 |  | 19438.7 ± 580.2 |  | 634.7 ± 3.21 | 4848.9 |  |
| CCCCC/C=C\C/C=C\CCCCCCCC(=O)OC(COC(=O)CCCCCCCCC)COC(=O)C(C)CC (stereo not drawn) [EC_A102] |  | 102.5 ± 4.4 |  | 18719.2 ± 2558.5 |  | 775.1 ± 11.5 | 8091.5 |  |
